Test results as given in ChEMBL document CHEMBL1127549, “Synthesis and delta-opioid receptor antagonist activity of a naltrindole analogue with a regioisomeric indole moiety” (J Med Chem, 1994).

Tests used:
Mu-type opioid receptor [1] = target: T1, Mu-type opioid receptor (Cavia porcellus, UniProt P97266); assay: Antagonist activity against mu-opioid receptor in guinea pig ileum in the presence of morphine; type: functional, tissue-based
[2] = target: Delta-type opioid receptor (Mus musculus, UniProt P32300); assay: Antagonist activity against delta-opioid receptor in mouse vas deferens in the presence of DADLE; type: functional, tissue-based
[3] = target: T2, Kappa-type opioid receptor (Cavia porcellus, UniProt P41144); assay: Antagonist activity against kappa-opioid receptor in guinea pig ileum in the presence of ethylketazocine; type: functional, tissue-based
Mu-type opioid receptor [4] = target: T1, Mu-type opioid receptor; assay: Binding affinity against mu-opioid receptor in guinea pig brain membranes; type: cell membranes, Membrane
[5] = target: T2, Kappa-type opioid receptor; assay: Binding affinity against kappa-opioid receptor in guinea pig brain membranes; type: cell membranes, Membrane

Delta-type opioid receptor, sequence (P32300 whole entry): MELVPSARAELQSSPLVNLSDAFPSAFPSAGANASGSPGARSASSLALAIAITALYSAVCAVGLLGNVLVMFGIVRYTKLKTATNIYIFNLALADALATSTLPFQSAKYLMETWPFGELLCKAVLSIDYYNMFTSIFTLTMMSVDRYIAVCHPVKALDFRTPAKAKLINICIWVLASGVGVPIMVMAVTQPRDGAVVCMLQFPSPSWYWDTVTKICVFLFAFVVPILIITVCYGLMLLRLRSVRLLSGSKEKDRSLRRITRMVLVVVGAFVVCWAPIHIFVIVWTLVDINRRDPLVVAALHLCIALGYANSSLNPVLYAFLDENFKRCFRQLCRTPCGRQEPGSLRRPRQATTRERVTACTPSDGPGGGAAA
T2 sequence (P41144 whole entry): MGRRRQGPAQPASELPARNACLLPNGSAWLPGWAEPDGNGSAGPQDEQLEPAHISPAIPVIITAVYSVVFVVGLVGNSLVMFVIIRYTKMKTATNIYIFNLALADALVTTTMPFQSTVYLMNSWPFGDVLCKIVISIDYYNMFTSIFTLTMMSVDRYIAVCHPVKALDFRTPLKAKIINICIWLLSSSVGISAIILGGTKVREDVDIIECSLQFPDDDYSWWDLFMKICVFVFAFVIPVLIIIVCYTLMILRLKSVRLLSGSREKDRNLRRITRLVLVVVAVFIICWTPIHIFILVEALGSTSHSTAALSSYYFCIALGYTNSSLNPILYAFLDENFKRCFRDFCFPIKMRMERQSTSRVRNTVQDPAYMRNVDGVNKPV
T1 sequence (P97266 whole entry): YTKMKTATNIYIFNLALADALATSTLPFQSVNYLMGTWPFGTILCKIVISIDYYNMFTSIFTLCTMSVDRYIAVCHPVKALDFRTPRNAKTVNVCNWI

Row | Structure (SMILES) | IC50 (Mu-type opioid receptor [1]) [nM] | IC50 [2] [nM] | IC50 [3] [nM] | Ki (Mu-type opioid receptor [4]) [nM] | Ki [5] [nM]
1 | CN1CC[C@]23c4c5ccc(O)c4O[C@H]2Cc2c([nH]c4ccccc24)[C@H]3[C@H]1C5 | 920 | 1000 | 990 |  | 
2 | Oc1ccc2c3c1O[C@H]1Cc4c([nH]c5ccccc45)[C@H]4[C@@H](C2)N(CC2CC2)CC[C@]314 |  | 8200 |  | 4.9 | 33
3 | Oc1ccc2c3c1O[C@H]1c4[nH]c5ccccc5c4C[C@@]4(O)[C@@H](C2)N(CC2CC2)CC[C@]314 [NALTRINDOLE] | 11200 | 459000 | 2000 |  | 
